The values that follow come from US20080096909A1, “APOMORPHINE INHIBITORS OF AMYLOID-BETA (ABETA) FIBRIL FORMATION AND THEIR USE IN AMYLOIDOSIS BASED DISEASE” (priority 2001, published 2008).

Where a name gives a salt, the structure may show the parent alone.

Test [1] deals with T1, Aβ 1-40 (Homo sapiens, UniProt P05067). The test can be described thus: Thioflavin T (ThT) fluorescence assay for fibril formation. On the set-up: Amyloid-β (Aβ 1-40) was purchased from California Peptides (Lot # SF104); purchased California Peptides Lot # SF104. As to conditions: for Thioflavin T signal after longer incubation: longer incubation at 37° C., some long fibrils formed; for Thioflavin T signal with sodium metabisulphite added: stock solutions containing 1% (v/v) sodium metabisulphite, 37° C., pH 7.4, 3 days. It counts as biochemical. As for the experimental part: Preparation of Stock Peptide Solutions for Fibrillization Studies. Stock solutions of the inhibitors were prepared by dissolving the compounds at a concentration of 5-7 mM in water or in 1-1.5% DMSO solutions (for compounds with reduced solubility). Amyloid-β (Aβ 1-40) was purchased from California Peptides (Lot # SF104). Aβ 1-40 stock solutions were prepared by dissolving purified and lyophilized peptide in cold double distilled water to yield stock solutions at a concentration of 2 mg/mL. The stock solutions were used within 10-30 minutes of dissolution. Samples for fibril formation assay were prepared by diluting the appropriate amount of Aβ stock with pH 7.4 Tris-HCl buffer (50 mM Tris, 150 mM NaCl) to afford a final peptide concentration of 100 μM. […] Analytical ultracentrifugation, and electron microscopy were periodically used to ensure that we start our experiments with a hydrodynamically defined Aβ monomer, and the absence of any preformed fibrils in solution.
T1 sequence (P05067 672-711): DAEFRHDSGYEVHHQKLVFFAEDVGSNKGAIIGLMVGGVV
Thioflavin T (ThT) Fluorescence Assay for Fibril Formation. Thioflavin T was purchased from Aldrich (70% purity) and was recrystallized from benzene/ethanol (1:1) to afford yellow crystals (36). Thioflavin T binding assays were performed by addition of 50 μL of 100 μM Aβ solutions, which were incubated at 37° C. in the absence and presence of inhibitors, to 450 μL solution of 10 μM Thioflavin T in phosphate buffer (10 mM phosphate, 100 mM KCl). The solutions were mixed and fluorescence measurements were recorded in Biosystems model spectrofluorimeter at 25° C. using a 1 cm path length quartz cell. An excitation slit width of 4 nm and an emission slit width of 8 nm were employed. The excitation wavelength was set to 450 nm and emission monitored from 460-630 nm. The relative fluorescence at 482 nm was plotted for each sample, and was used as a measure of the amount of fibrillar aggregates in solution.

Test [2] concerns the target T1, Aβ 1-40. The test can be described thus: Sedimentation velocity of Aβ quaternary structures in the presence of inhibitors. It counts as biochemical. On the set-up: Amyloid-β (Aβ 1-40) was purchased from California Peptides (Lot # SF104); purchased California Peptides Lot # SF104. As to conditions: for Amount of nonfibrillar assemblies (protofibrils) formed by Aβ alone relative to that obtained in the presence of compound: 20 hour incubation; for Sedimentation velocities, 20 h (average sedimentation coefficient): Aβ 1-40 100 μM + compound 100 μM, 37° C. As for the experimental part: Probing the Mechanism of Amyloid Fibril Formation Inhibition using Sedimentation Velocity Experiments. To probe the mechanism by which apomorphine and its structural analogues inhibit Aβ fibril formation, sedimentation velocity was used to determine the distribution and molecular size of quaternary structures of Aβ in the presence and absence of inhibitors. Aβ samples (100 μM) in a pH 7.4 buffer (50 mM Tris-HCl, 150 mM NaCl) were incubated at 37° C. for 1-10 days in the presence and absence of inhibitors, then transferred to 25° C. for 1-3 hours before the sedimentation experiments were carried out at 20° C. The sedimentation properties of Aβ 1-40 in the absence and presence of inhibitors were obtained from data collected on a temperature controlled Beckman XL-1 using 400-420 μL of peptide solutions and data were recorded at rotor speeds of 3,000-30,000 rpm in continuous mode with a step size of 0.005 cm. The sedimentation velocity absorbance profiles were then analyzed using the time derivative (dc/dt) analysis program, which was provided by J. Philo, to obtain the sedimentation coefficient distribution g(*s) for all the quaternary structures in solution as described previously (37, 38).
Fitting of the g(*s) profiles allows for the determination of the sedimentation coefficient (peak position, with a unit of Svedberg, 1 S=10^−13 s) and the diffusion coefficient (from the peak width, with a unit of Fick, 1 F=[…]). This method has the advantage of allowing for the calculation of the molecular weight of the sedimenting species using equation II since s and D can be obtained from the fitting analysis. [formula]
In the cases where the diffusion coefficient cannot be determined accurately, the molecular weight of a spherical protein can still be estimated by combining the Svedberg equation and Stokes equation for the frictional coefficient to obtain equation III which utilizes the estimated sedimentation coefficient: [formula]
Sedimentation velocity was also used to determine the amount of soluble Aβ and Aβ monomer in solution after sedimentation of Aβ aggregates. […] The percent of monomeric species in solution was calculated using equation IV at 50,000 rpm and after complete sedimentation of Aβ high MW oligomeric species. Sedimentation equilibrium studies of the unsedimented species were carried out to determine whether a monomer, dimer or a mixture was present in solution. % of unsedimented Aβ=1−(Absorbance(290 nm, 3000 rpm)−Absorbance(290 nm, 20,000-30,000 rpm))×100 (IV)

In test [3] the target is T1, Aβ 1-40. The test can be described thus: Electron microscopy of Aβ aggregates in the presence of inhibitor. On the set-up: Amyloid-β (Aβ 1-40) was purchased from California Peptides (Lot # SF104); purchased California Peptides Lot # SF104. Type of test: biochemical. As to conditions: for Protofibril assembly into fibrils when compound is added to pre-incubated Aβ (EM and sedimentation velocity): Aβ pre-incubated 18-20 hr at 37° C., then three to nine days with compound. As for the experimental part: Electron Microscopy. Electron microscopy was used to follow the changes in size and structural morphology of Aβ aggregates in the presence and absence of inhibitor at 37° C. as a function of time. EM samples were prepared by placing 5 μL of the Aβ solution on a carbon-coated grid and allowing the solution to stand for 2 min before removing excess solution. The grid was then washed once with distilled water and once with 1% uranyl acetate before staining the sample with fresh 1% uranyl acetate for another 2 min. The samples were then studied in a Phillips CM-100 electron microscope. The grids were thoroughly examined to get an overall statistical evaluation of the structures present in the sample. All electron micrographs were taken at 100 kV.

Test [4] deals with T1, Aβ 1-40. The test can be described thus: Aβ 1-40 fibril formation inhibition judged by ThT, sedimentation velocity and electron microscopy. As to conditions: Aβ 1-40 100 μM; for Effect on Aβ 1-40 fibril formation (ThT, sedimentation velocity, EM): pH 7.4, 37° C., 3 days.
Setting [5] is: Aβ coincubated with D030, 11 days at 37° C.

With `CCCN1CCc2cccc3c2[C@H]1Cc1ccc(O)c(O)c1-3.Cl` [D027, R(−)-Propylnorapomorphine hydrochloride], at Aβ 1-40 [1], the “Thioflavin T signal after longer incubation” value is reported as “did not exhibit any changes” and the “Thioflavin T signal with sodium metabisulphite added” value is reported as “restoration of the ThT signal”. Also, on Aβ 1-40 [2], the “Amount of nonfibrillar assemblies (protofibrils) formed by Aβ alone relative to that obtained in the presence of compound” value is approximately 30% and the “Sedimentation velocities, 20 h (average sedimentation coefficient)” value (“Sedimentation velocities, 20 h” below) was found to be 33 S. The “Protofibril assembly into fibrils when compound is added to pre-incubated Aβ (EM and sedimentation velocity)” value (“Protofibril assembly into fibrils” for short) on Aβ 1-40 [3] is given as “no fibril formation”. The “Inhibition of Aβ fibril formation by EM, aged or freshly prepared stock solutions” value at Aβ 1-40 [3] (three to four days at 37° C.) is given as “effective inhibition of Aβ fibril formation”.
For the molecule `Br.CCCN1CCc2cc(O)cc3c2[C@H]1Cc1ccc(O)c(O)c1-3` [D029, R(−)-2,10,11-Trihydroxy-N-propylnorapomorphine hydrobromide], at Aβ 1-40 [1], the “Thioflavin T signal after longer incubation” value was “did not exhibit any changes” and the “Thioflavin T signal with sodium metabisulphite added” value is “restoration of the ThT signal”. Besides, on Aβ 1-40 [2], the “Amount of nonfibrillar assemblies (protofibrils) formed by Aβ alone relative to that obtained in the presence of compound” value was approximately 30% and the “Sedimentation velocities, 20 h” value worked out at 35 S. Further, the “Protofibril assembly into fibrils” value at Aβ 1-40 [3] is listed as “exhibited similar behavior”.
`Br.CN1CCc2cc(O)cc3c2[C@H]1Cc1ccc(O)c(O)c1-3` [D030, R(−)-2,10,11-Trihydroxyaporphine hydrobromide]: the “Concentration at which Aβ 1-40 fibril formation is inhibited” value on Aβ 1-40 [4] (incubation period of three days) turned out to be 100 µM. Further, the “Thioflavin T signal after 11 days” value at Aβ 1-40 [1] (setting [5]) is recorded as “did not show a ThT signal”. For the same molecule, at Aβ 1-40 [1], the “Thioflavin T signal after longer incubation” value is “did not exhibit any changes” and the “Thioflavin T signal with sodium metabisulphite added” value is “restoration of the ThT signal”. For the same molecule, on Aβ 1-40 [2], the “Amount of nonfibrillar assemblies (protofibrils) formed by Aβ alone relative to that obtained in the presence of compound” value is reported as approximately 30% and the “Sedimentation velocities, 20 h” value was determined as 33 S. For the same molecule, the “Incubation period during which nonfibrillar assemblies remain the dominant species (EM and sedimentation velocity)” value on Aβ 1-40 [3] (37° C., incubation extended to nine days) is 1 to 3 days. Moreover, the “Structures seen by EM after 9 days” value at Aβ 1-40 [3] (Aβ 100 μM, pH 7.4, 9 days at 37° C.) is listed as “accumulation of some long fibrils in solution”. The “Structures seen by EM after 11 days” value at Aβ 1-40 [3] (setting [5]) was “significant amounts of fibrils in solution”. For the same molecule, the “Protofibril assembly into fibrils” value on Aβ 1-40 [3] was “least effective compound towards inhibiting protofibril assembly into fibrils”.
In the case of `Br.Oc1ccc2c(c1O)-c1cccc3c1[C@@H](C2)NCC3` [D040, R(−)-Norapomorphine hydrobromide], at Aβ 1-40 [1], the “Thioflavin T signal after longer incubation” value was “did not exhibit any changes” and the “Thioflavin T signal with sodium metabisulphite added” value is “restoration of the ThT signal”. Further, on Aβ 1-40 [2], the “Amount of nonfibrillar assemblies (protofibrils) formed by Aβ alone relative to that obtained in the presence of compound” value is listed as approximately 30% and the “Sedimentation velocities, 20 h” value is listed as 31 S. In addition, at Aβ 1-40 [3], the “Protofibril assembly into fibrils” value is on record as “exhibited similar behavior”.
With `CCCN1CCc2cccc3c2[C@H]1Cc1ccc2c(c1-3)OCO2.Cl` [M121, R(−)-10,11-Methylenedioxy-N-n-propylnoraporphine hydrochloride], at Aβ 1-40 [4], the “Effect on Aβ 1-40 fibril formation (ThT, sedimentation velocity, EM)” value is “showed no effect”.
Still for that read-out and setting: the value for `COc1ccc2c(c1O)-c1cccc3c1[C@@H](C2)N(C)CC3.Cl` [R(−)-apocodeine, R(−)-Apocodeine hydrochloride] was “showed no effect”; that for `COc1ccc2c(c1O)-c1c3c(cc4c1[C@H](C2)N(C)CC4)OCO3` [bulbocapnine, Bulbocapnine hydrochloride] was “showed no effect”; that for `COc1ccc2c(c1O)-c1c(OC)c(OC)cc3c1[C@H](C2)N(C)CC3.Cl` [isocrydine, Isocrydine hydrochloride] was “showed no effect”.
